Test results reported in patent US20190382839A1, “[…]” (Bayer Pharma Aktiengesellschaft, priority 2016, published 2019).
Read-outs that look alike come from different tables or passages of the source.

Test system: NHL patients (FL, MZL, MCL, DLBCL, transformed indolent lymphoma, CLL)
From the text: Best response status and progression-free survival (hereinafter referred to as “PFS”) from independent review assessment were used for gene expression analysis. A total number of 24 patients including 3 complete responders, 1 confirmed (hereinafter referred to as “CR”) and 2 unconfirmed (hereinafter referred to as “CRu”) and 5 partial responders (hereinafter referred to as “PR”), 11 stable diseases (hereinafter referred to as “SD”) and 5 progressive diseases (hereinafter referred to as “PD”) with follicular lymphoma (hereinafter referred to as “FL”), marginal zone lymphoma (hereinafter referred to as “MZL”), mantle cell lymphoma (“MCL”), diffuse large B-cell lymphoma (hereinafter referred to as “DLBCL”), transformed indolent lymphoma or CLL who had baseline RNA expression profiling data of sufficient quantity and quality were used for gene expression analysis as listed in Table 1 (given in the experimental section).
Bioinformatics and statistical analyses were done for all 24 NHL patients. […] For GSEA, 34 gene sets (vide Tables 2 and 3) sharing key biological function/process in apoptosis, B-cell receptor (hereinafter referred to as “BCR”) signaling, IL6/JAK/STAT3, cytokine/chemokine, MAPK, MYC, MYD88, NFAT, NFkB, NOTCH, PI3K or tumor microenvironment (refs 3 and 4) were selected and generated.
A weighted gene expression score (hereinafter referred to as “WGS”) reflecting the overall expression level for each gene set was generated from logistic regression and Cox proportional hazards models to assess the association with response status (best-response-WGS) and PFS (PFS-WGS), respectively.
Both the best-response-WGS as well as the PFS-WGS were in turn used in logistic regression or Cox regression models to assess the association of either WGS with the endpoints. Moreover, the raw best-response WGS was used to compute non-cross validated AUC estimates for responder (CR+PR) and non-responder (SD+PD) classifications.

For `COc1c(OCCCN2CCOCC2)ccc2c1N=C(NC(=O)c1cnc(N)nc1)N1CCN=C21` [copanlisib], the “median PFS” value (CSTB, median gene expression level as cutoff, first printed group (high expression, shorter PFS)) was 74 days, the “number of patients with CR” value (of the 24 analyzable patients) was 3 and the “number of patients with PD” value (of the 24 analyzable patients) was 5. The “number of patients with PR” value (of the 24 analyzable patients) was 5, the “number of patients with SD” value (of the 24 analyzable patients) was 11 and the objective response rate (patients with high BCR pathway WGS compared to low) was “increased”. The objective response rate (patients with high PI3K pathway WGS compared to low) was “increased”.
